Source: a melting point compilation (Tetko et al.; mined from patent text by program, amines drawn as free bases though some values may be those of a salt)

First: CCCCCCCCCCCCCCCCCCOc1cccc(C(=O)OC)c1OCCCOc1ccc(OCc2ccccc2)cc1
Second: O=S(=O)(Cl)CCCCCCCc1ccc(OCc2ccccc2)cc1
The melting point of the first is higher: 43 to 45 °C for the first, 33 to 35 °C for the second.

`CC(C)Oc1nccc(-c2c(-c3ccc(F)cc3)ncn2C2CCC(=O)CC2)n1` and `Fc1ccc(C=Nc2c3c(nc4ccccc24)CCCC3)cc1` fall in the same range of melting point: 161 to 163 °C for the first, 161 to 163 °C for the second.

First: COc1cc2c(cc1OC)-c1c(C(=O)NC3CCCCC3)c(-c3cc(C)c(O)c(C)c3)c(C)n1CC2
Second: COc1ccc(-c2cnc(S(C)(=O)=O)nc2)cc1OC1CCCC1
The melting point of the first is higher: 273 to 276 °C for the first, 188 to 190 °C for the second.

First: CC1CCN(c2cc(C(C)(C)C)no2)C1=O (centres undefined)
Second: Cc1nc2cccc(OCC(C)(C)NC(=O)C3CCC3)c2c(N)c1C(=O)O
The melting point of the first is lower: 73 to 75 °C for the first, 186 to 190 °C for the second.

First: CC(=O)N1CCC(C(=O)N2CC[C@@H](N(C)C(=O)c3ccc(C4CC4)cc3)[C@H](c3ccc(Cl)c(Cl)c3)C2)CC1
Second: Cc1cc(C)c2cccc(OCc3c(Cl)ccc(S(=O)(=O)N4CCC[C@H]4C(=O)N4CCN(C(=O)c5cccc(C=NN)c5)CC4)c3Cl)c2n1
The melting point of the first is lower: 129 to 133 °C for the first, 158 °C for the second.

First: CC(C)(C(=O)Nc1cccc(Cl)c1)N1OCC(CI)=C(c2ccccc2)C1=O
Second: Cn1c(=O)nc(-c2ccccc2)c2cc(Cl)ccc21
The melting point of the first is lower: 135 to 137 °C for the first, 224 °C for the second.

First: CCCCNC(=O)Cc1cc(=O)oc2cc(OCc3cccc(Cl)c3)ccc12
Second: CCOC(=O)c1ccc2c(c1)sc1cc(Cl)ccc12
The melting point of the first is lower: 112 to 113 °C for the first, 120 to 122 °C for the second.

First: Fc1ccc2[nH]cc(C3=CCC4(CC3)OCCO4)c2c1
Second: CC(=O)OCC1(c2ccc(F)cc2)CCC(=O)CC1
The melting point of the first is higher: 153 to 155 °C for the first, 80 to 84 °C for the second.

First: CCCOc1n[nH]c(=O)n1C1CC1
Second: CCCOc1ccc(NC2=C(C(=O)OCC)CCC2)cc1C1=NC(=O)C2=NN=NC2=N1
The melting point of the first is lower: 105 to 106 °C for the first, 164 to 165 °C for the second.

First: COc1ccc(C=CC(=O)OCCC(C)CCc2ccccc2)c(O)c1 (centres undefined)
Second: COc1ccc(C=CC(=O)c2ccccc2Br)c(OC)c1
The melting point of the first is lower: 70 to 73 °C for the first, 91.3 to 91.8 °C for the second.

First: O=C1c2ccccc2C(=O)N1CC(=O)N1c2ccccc2N(Cc2ccccc2)C(=O)C(Cc2ccccc2)C1C(F)(F)F (centres undefined)
Second: O=C(c1ccccc1)c1ccc(C(=O)N2Cc3ccccc3CCc3ccccc32)cc1
The melting point of the first is higher: 262 to 263 °C for the first, 89 to 92 °C for the second.

First: N#Cc1cnc2cc(/C=C/CCCCN3CCOCC3)ccc2c1Nc1ccc(Cl)cc1Cl
Second: COc1cc(Nc2c(C#N)cnc3cc(-c4ccsc4CN4CCOCC4)ccc23)c(Cl)cc1Cl
The melting point of the first is higher: 139 to 140 °C for the first, 98 to 100 °C for the second.

Compared with `Nc1ccc(Cc2ccccc2)cc1[N+](=O)[O-]`, `O=C(Oc1ccc(CCN(F)F)cc1)c1ccccc1` is lower in melting point: 80 to 83 °C for the first, 67 to 67.5 °C for the second.

First: O=c1oc2ccccc2c(O)c1Sc1ccccc1
Second: O=c1cc(-c2ccccc2F)oc2ccccc12
The melting point of the first is higher: 186 to 189 °C for the first, 98 to 100 °C for the second.

First: O=C(Nc1cc2nc(-c3ccc(C(=O)C4CCCCCC4)cc3)[nH]c2cn1)C1CCCCCC1
Second: COc1cccc(-c2cnc3[nH]cc(C(=O)C4(C)CCCCC4)c3n2)c1
The melting point of the first is higher: 194 °C for the first, 173 to 175 °C for the second.

First: Cc1c(S(=O)(=O)Nc2ccc3[nH]cc(CCN(C)C)c3c2)sc2ccc(Cl)cc12
Second: NC(=O)c1[nH]c2ccc(Cl)cc2c1S(=O)(=O)c1ccccn1
The melting point of the first is lower: 226 to 227 °C for the first, 244 to 246 °C for the second.

First: CCCCCC(CC(=O)Nc1cc(C(N)=O)ccc1C(C)(C)C)c1cc(C(N)=O)c(OC)cc1OC (centres undefined)
Second: COc1cc(-c2cc(=O)c3ccc(OCC(O)CNC(C)C)cc3o2)cc(OC)c1OC (centres undefined)
The melting point of the first is higher: 160 to 163 °C for the first, 106 to 107 °C for the second.

First: O=C1c2c(-c3ccccc3)noc2CCC1CCCN1CCOCC1 (centres undefined)
Second: Cc1ccnc(-c2ccccc2)c1C(=O)O
The melting point of the first is lower: 86 to 88.5 °C for the first, 210 to 212 °C for the second.

First: Nc1cc(C(F)(F)F)nc(C(F)(F)F)c1
Second: CC(C)(C)NCC(O)COc1ccc2c(c1-c1nc(C(F)(F)F)c[nH]1)CCCC2 (centres undefined)
The melting point of the first is lower: 147 to 149 °C for the first, 203 to 205 °C for the second.

Compared with `CC1CC(=O)NN=C1c1ccc(NC(=O)C2CC2(C)C)cc1` (centres undefined), `O=C(Nc1ccccc1)O[C@@H]1CN=C(c2ccc([N+](=O)[O-])cc2)O[C@H]1c1ccccc1` (racemic) is lower in melting point: 222 to 223 °C for the first, 148 °C for the second.

First: Cc1cc(C)c(Nc2nc(C)ccc2S(=O)(=O)c2ccc(OCCCCC#N)cc2)c(C)c1
Second: COC(=O)CCc1nc(C=O)ccc1OCCCC/C=C/c1ccc(OC)cc1
The melting point of the first is higher: 115 to 116 °C for the first, 66 to 69 °C for the second.

`O=C(O)c1ccccc1Sc1c(O)c2c(Cl)cc(Cl)cc2[nH]c1=O` and `O=c1[nH]c2cc(Cl)c(Cl)cc2[n+]([O-])c1-c1ccccc1` cannot be ordered by melting point: greater than 300 °C for the first, 300 to 302 °C for the second.

`NC(=O)Cn1c(=O)c(=O)[nH]c2ccccc21` and `NC(=O)c1cc(-c2ccccc2)n[nH]c1=O` cannot be ordered by melting point: greater than 300 °C for the first, greater than 300 °C for the second.

First: c1ccc(-c2ccc3oc(COc4ccc(CCCn5ccnc5)cc4)nc3c2)cc1
Second: C=Cc1ccc2ccccc2c1-c1ccc(O)c(OC)c1
The melting point of the first is higher: 123 to 124 °C for the first, 83 to 86 °C for the second.

First: CC(=O)Oc1ccc(CCC2CC(=O)OC(=O)C2)cc1
Second: Cn1nc(N)nc1NCCCOc1ccc(CN2CCCCC2)cc1
The melting point of the first is lower: 97 to 99 °C for the first, 104 to 105 °C for the second.

First: CC(C)n1nc(-c2sc(NC(=O)c3ccccc3F)nc2-c2ccccc2)ccc1=O
Second: CCc1nc(C2CC2)c(C(=O)O)n1Cc1ccc2oc(-c3ccccc3C(=O)NS(=O)(=O)c3ccccc3)c(Br)c2c1
The melting point of the first is higher: 251 to 252 °C for the first, 176 to 178 °C for the second.

Going from `CCCCCCCCCc1ccc(-c2ccc(OCC(C)CC)nn2)cc1` (centres undefined) to `CCCCCCN(O)CCCCCC`, the melting point falls from 78 °C to 67 °C.

Compared with `CCCC(=O)N(Cc1cccc2c1S(=O)(=O)N=C2C1=C(O)C(C(C)(C)C)N(Cc2ccc(F)c(C)c2)C1=O)S(C)(=O)=O` (centres undefined), `CCS(=O)(=O)N[C@H](C(=O)NCc1ccc(OCc2ccccc2)c(OC)c1)C(C)C` is lower in melting point: 226 °C for the first, 141 to 152 °C for the second.

First: COc1ccc2c(c1)c1c(n2C(=O)c2ccccc2)CCC(C(=O)O)C1 (centres undefined)
Second: O=C(c1ccc(-c2ccn(C(=O)c3ccc(Cl)cc3Cl)n2)cc1)N1Cc2cccn2Cc2ccccc21
The melting point of the first is higher: 216 to 219 °C for the first, 180 to 182 °C for the second.

First: COc1ccc(Br)cc1C(=O)C(Br)C(Br)c1cccc(Br)c1 (centres undefined)
Second: COc1ccc(-c2nc(C(=O)OC(C)C)cc(Cl)c2Cl)cc1
The melting point of the first is higher: 124 to 126 °C for the first, 113 to 116 °C for the second.

First: c1ccc2c(c1)oc1nnccc12
Second: CCc1cc2c(-c3ccccc3Cl)c(N)cnc2s1
The melting point of the first is higher: 120 to 122 °C for the first, 87 to 88 °C for the second.

First: CNc1cc2c(cc1OC)OCO2
Second: COC1(c2cc(F)cc(Sc3cnc4c(c3)OCC(=O)N4C)c2)CCOCC1
The melting point of the first is lower: 66 °C for the first, 127 to 128 °C for the second.

First: C[C@@H](n1cnc2cc(Cl)ccc2c1=O)[C@](O)(Cn1cncn1)c1ccc(Cl)cc1Cl
Second: Cc1c(-c2ncc([N+](=O)[O-])n2C)cnn1-c1ccc(Cl)cc1
The melting point of the first is lower: 144 to 146 °C for the first, 164 °C for the second.

First: Cc1cc(C)cc(P(=O)(O)c2cc(C)cc(C)c2)c1
Second: CCc1ccc(Nc2nnc(Cc3ccnc(OC)c3)c3ccccc23)cc1Br
The melting point of the first is higher: 256 to 261 °C for the first, 133 to 135 °C for the second.

Compared with `CC(C)(C)OC(=O)N(Cc1ccccc1)[C@H](COP(=O)(Oc1ccccc1)Oc1ccccc1)C(=O)O`, `CCCn1c(=O)n2c(=O)n(COCc3ccccc3)nc2c2c1ncn2COCc1ccccc1` is lower in melting point: 108 to 109 °C for the first, 88.9 to 90.3 °C for the second.

`O=C1CCCN(C(=O)c2ccc([N+](=O)[O-])cc2Cl)c2ccsc21` and `O=C(OC1CCCC1)c1ncn2c1[C@@H]1CCN1C(=O)c1c(I)cccc1-2` cannot be ordered by melting point: 180 to 185 °C for the first, 184 to 185 °C for the second.

Compared with `CCCOC(C)c1ccc2[nH]c3cnc(C(=O)OCC)c(COC)c3c2c1` (centres undefined), `COc1nc2ccccc2c2c1ncn2CC(C)C` is lower in melting point: 189 to 190 °C for the first, 111 to 114 °C for the second.

First: CC(/C=C/C(=O)OC(C)(C)C)=C\c1ccc([N+](=O)[O-])cc1
Second: COC(=O)NC=Cc1ccc(OCC(O)CNC(C)CC(N)=O)cc1 (centres undefined)
The melting point of the first is higher: 120 to 122 °C for the first, 109 to 111 °C for the second.

First: CC1(C)CC(=C(c2ccc(O)cc2)c2ccc(-c3ccc(CO)cc3)cc2)CC(C)(C)C1
Second: CS(=O)(=O)c1ccc(-n2nc(C(N)=O)cc2-c2ccc(-c3ccco3)cc2)cc1F
The melting point of the first is lower: 222 to 223 °C for the first, 239 to 240 °C for the second.

First: CCCCCN(CCC12CC3CC(CC(C3)C1)C2)C(=O)NCCC(C)c1ccncc1 (centres undefined)
Second: COC(=O)CCCCCSC1=CC(OC2CCCCO2)CC1=O (centres undefined)
The melting point of the first is higher: 93 to 98 °C for the first, 41 to 42 °C for the second.

First: CCOC(=O)CCC(C)C1CCC2C3C(O)C(CC)C4CC(O)CCC4(C)C3CCC12C (centres undefined)
Second: CON=C(C#CCN1CCOCC1)C(=O)OC
The melting point of the first is higher: 55 to 57 °C for the first, 43 to 45 °C for the second.

First: N#CC(=C1Nc2ccccc2O1)S(=O)(=O)c1ccccc1
Second: O=[N+]([O-])c1ccc(F)cc1CCN1CCN(c2nsc3ccccc23)CC1
The melting point of the first is higher: 215 to 218 °C for the first, 131 °C for the second.

First: COC(=O)C(OC)C(=S)Nc1cc(Cl)cc(Cl)c1 (centres undefined)
Second: CCC(=O)Nc1cc(F)ccc1C(=O)O
The melting point of the first is lower: 144 to 147 °C for the first, 170 to 171 °C for the second.

First: Cn1c(=Nc2nc(C(Cl)(Cl)Cl)nc(C(Cl)(Cl)Cl)n2)sc2ccccc21
Second: Cc1nn2c(=O)c(CCCl)c(C)nc2s1
The melting point of the first is higher: 251 to 253 °C for the first, 118 °C for the second.

First: O=C1CCC(N2Cc3c(OCc4ccc(CN5CCC(F)(F)C5)cc4)cccc3C2=O)C(=O)N1 (centres undefined)
Second: Oc1ccc2c(c1)OCC(N1CCC(O)(c3ccc(F)cc3)CC1)C2O (centres undefined)
The melting point of the first is lower: 126 to 128 °C for the first, 159 to 160 °C for the second.

First: O=[N+]([O-])c1ccc(Br)cc1O
Second: CCS(=O)(=O)N(c1ccc(F)cc1Br)S(=O)(=O)CC
The melting point of the first is lower: 40 to 42 °C for the first, 114 to 116 °C for the second.

Compared with `CCCc1c(OS(=O)(=O)N(C)C)cc2oc3cc(Cl)cn3c(=O)c2c1O`, `CC(=O)NCCc1c(C(F)(F)F)nn2ccc3c(c12)CCO3` is higher in melting point: 159 to 160 °C for the first, 196 to 198 °C for the second.

Compared with `O=C(Nc1ccc(-n2ccnc2)cc1)Nc1ccc(C(F)(F)F)cc1`, `c1cn(Cc2ccc3c(c2)-c2[nH]nc(-c4ccsc4)c2C3)nn1` is higher in melting point: 209 to 213 °C for the first, 249 to 252 °C for the second.

Compared with `CS(=O)c1ccc2c(c1)C(=O)C1(CC1)O2` (centres undefined), `COc1cccc(C=CC(=O)N2CCNCC2)c1` is lower in melting point: 87 to 90 °C for the first, 84 to 86 °C for the second.

`CCC(=O)C(=O)NC(=O)[C@@H](N)Cc1ccccc1` showed a melting point of 121 to 123 °C.
